Measurements: patent US20250034182A1, “PHOSPHOLIPID COMPOUNDS AND METHODS OF MAKING AND USING THE SAME” (priority 2021, published 2025)

Tests used:
Format in all cases: cell-based
[1] = system: Respiratory syncytial virus recombinant with luciferase (RSV-Luc5) in HEp-2 cells; assay: HEp-2 RSV-Luc5 384-well assay (EC50 RSVFLUC Hep2-384 v2, Example V); settings: human respiratory syncytial virus, HEp-2, 72 h, read-out: RSV Hep-2 FLuc EC50 (v2) (nM) (per Ex. V)
Text: HEp-2 cell line was purchased from ATCC (Manassas, VA Cat #CCL-23) and maintained in Dulbecco's […] (DMEM) (Corning, New York, NY, Cat #15-018CM) supplemented with 10% fetal bovine serum (FBS) (Hyclone, Logan, UT, Cat #SH30071-03) and 1× Penicillin-Streptonycin-L-Glutamine (Corning, New York, NY, Cat #30-009-CI). Cells were passaged 2 times per week to maintain sub-confluent densities and were used for experiments at passage 5-20. Respiratory syncytial virus recombinant with luciferase (RSV-Luc5) (≥1×107 TCID50/ml) was purchased from Microbiologics (Saint Cloud, MN). Viral replication was determined in HEp-2 cells in the following manner.
(§1) Compounds are prepared in 100% DMSO in 384-well polypropylene plates (Greiner, Monroe, NC, Cat #784201) with 8 compounds per plate in grouped replicates of 4 at 10 serially diluted concentrations (1:3). The serially diluted compounds were transferred to low dead volume Echo plates (Labcyte, Sunnyvale, CA, Cat #LP-0200).
The test compounds were spotted to 384-well assay plates (Greiner, Monroe, NC, Cat #781091) at 200 nL per well. HEp-2 cells were harvested and suspended in DMEM (supplemented with 10% FBS and 1× Penicillin-Streptomycin-L-Glutamine) and seeded to the pre-spotted assay plates at 4,000 cells per well in 30 μL. RSV-Luc5 viruses were diluted in DMEM (supplemented with 10% FBS and 1× Penicillin-Streptomycin-L-Glucamine) at 200,000 Infectious Units (IU) per mL and 10 μL per well was added to the assay plates containing cells and compounds, for an MOI=0.5. The assay plates were incubated for 3 days at 37° C. and 5% CO2. At the end of incubation, One-Glo reagent (Promega, Madison, WI, Cat #E6120) was prepared. The assay plates and One-Glo reagent were equilibrated to room temperature for at least 15 minutes. 40 μL per well of One-Glo reagent was added and the plates were incubated at room temp for 15 minutes before reading the luminescence signal on an EnVision multimode plate reader (Perkin Elmer, Waltham, MA). Remdesivir was used as positive control and DMSO was used as negative control. Values were normalized to the positive and negative controls (as 0% and 100% replication, respectively) and data was fitted using non-linear regression analysis by Gilead's dose response tool. The EC50 value for each compound was then determined as the concentration reducing the viral replication by 50%.

[2] = system: Respiratory syncytial virus recombinant with luciferase (RSV-Luc5) in NHBE cells; assay: NHBE RSV-Luc5 384-well assay (EC50 RSVFLUC NHBE-384, Example U); settings: human respiratory syncytial virus, 72 h, read-out: RSV FLuc NHBE 384 EC50 (v2) (nM) (per Ex. U)
Experimental: Normal Human Bronchial Epithelial (NHBE) cells were purchased from Lonza (Walkersville, MD Cat #CC2540) and maintained in BEGM Bronchial Epithelial Cell (Growth Medium BulletKit (Lonza CC-3170).
Cells were thawed, expanded, and were used for experiments at passage 2. Respiratory syncytial virus recombinant with luciferase (RSV-Luc5) (≥1×10^7 Infectious Units/ml (IU/ml) determined by TCID50) was purchased from Microbiologics (Saint Cloud, MN). Viral replication was determined in NHBE cells in the following manner.
as §1
The test compounds were spotted to 384-well assay plates (Greiner, Monroe, NC, Cat #781091) at 200 nL per well. NHBE cells were harvested and suspended in BEGM Bronchial Epithelial Cell Growth Medium BulletKit and seeded to the pre-spotted assay plates at 5,000 cells per well in 30 μL. RSV-Luc5 virus was diluted in BEGM Bronchial Epithelial Cell Growth Medium BulletKit at 500,000 Infectious Units (IU) per mL and 10 μL per well was added to the assay plates containing cells and compounds, for an MOI of 1. The assay plates were incubated for 3 days at 37° C. and 5% CO2. At the end of incubation, One-Glo reagent (Promega, Madison, WI, Cat #E6120) was prepared. The assay plates and One-Glo reagent were equilibrated to room temperature for at least 15 minutes. 40 μL per well of One-Glo reagent was added and the plates were incubated at room temperature for 15 minutes before reading the luminescence signal on an EnVision multimode plate reader (Perkin Elmer, Waltham, MA). Remdesivir was used as positive control and DMSO was used as negative control. Values were normalized to the positive and negative controls (as 0% and 100% replication, respectively) and data was fitted using non-linear regression analysis by Gilead's dose response tool. The EC50 value for each compound was defined as the concentration reducing the viral replication by 50%.

[3] = RSV NHBE CC50 384 V2 (per Ex. U); settings: human
[4] = RSV HEP2-CC50-384-V2 (per Ex. V); settings: human

## CCCCCCCCCCCCCCCCCCC[C@H](COP(=O)(O)OC[C@@]1(C#N)O[C@@H](c2ccc3c(N)ncnn23)[C@H](O)[C@@H]1O)Oc1ccc(C#N)c(F)c1 [Compound 85, ((2R,3S,4R,5S)-5-(4-aminopyrrolo[2,1-f][1,2,4]triazin-7-yl)-2-cyano-3,4-dihydroxytetrahydrofuran-2-yl)methyl ((R)-2-(4-cyano-3-fluorophenoxy)henicosyl) hydrogen phosphate]
[1]
  EC50: 93 nM
[2]
  EC50: 11 nM
[3]
  CC50 at 3 days: 1440 nM
[4]
  CC50 at 3 days: > 50000 nM

## CCCCCCCCCCCCCCCCOC[C@@H](COP(=O)(O)OC[C@@]1(C#N)O[C@@H](c2ccc3c(N)ncnn23)[C@H](O)[C@@H]1O)OCc1cc(Cl)cc(C#N)c1 [Compound 98, ((2R,3S,4R,5S)-5-(4-aminopyrrolo[2,1-f][1,2,4]triazin-7-yl)-2-cyano-3,4-dihydroxytetrahydrofuran-2-yl)methyl ((S)-2-((3-chloro-5-cyanobenzyl)oxy)-3-(hexadecyloxy)propyl) hydrogen phosphate]
[1]
  EC50: 34 nM
[2]
  EC50: 11 nM
[3]
  CC50 at 3 days: 2900 nM

## CCCCCCCCCCCCCCCCOC[C@@H](COP(=O)(O)OC[C@@]1(C#N)O[C@@H](c2ccc3c(N)ncnn23)[C@H](O)[C@@H]1O)OCc1ccccc1 [Compound 92, ((2R,3S,4R,5S)-5-(4-aminopyrrolo[2,1-f][1,2,4]triazin-7-yl)-2-cyano-3,4-dihydroxytetrahydrofuran-2-yl)methyl ((S)-2-(benzyloxy)-3-(hexadecyloxy)propyl) hydrogen phosphate]
[1]
  EC50: 194 nM
[2]
  EC50: 47 nM
[3]
  CC50 at 3 days: 9560 nM
[4]
  CC50 at 3 days: > 50000 nM

## CCCCCCCCCCCCCCCCCC[C@@H](COP(=O)(O)OC[C@@]1(C#N)O[C@@H](c2ccc3c(N)ncnn23)[C@H](O)[C@@H]1O)OCc1ccccc1 [Compound 93, ((2R,3S,4R,5S)-5-(4-aminopyrrolo[2,1-f][1,2,4]triazin-7-yl)-2-cyano-3,4-dihydroxytetrahydrofuran-2-yl)methyl ((S)-2-(benzyloxy)icosyl) hydrogen phosphate]
[1]
  EC50: 3060 nM
[2]
  EC50: 663 nM
[3]
  CC50 at 3 days: 8140 nM
[4]
  CC50 at 3 days: > 50000 nM

## CCCCCCCCCCCCC[C@@H](COP(=O)(O)OC[C@@]1(C#N)O[C@@H](c2ccc3c(N)ncnn23)[C@H](O)[C@@H]1O)OCc1cc(F)cc(C#N)c1 [Compound 97, ((2R,3S,4R,5S)-5-(4-aminopyrrolo[2,1-f][1,2,4]triazin-7-yl)-2-cyano-3,4-dihydroxytetrahydrofuran-2-yl)methyl ((S)-2-((3-cyano-5-fluorobenzyl)oxy)pentadecyl) hydrogen phosphate]
[1]
  EC50: 1490 nM
[2]
  EC50: 45 nM
[3]; NHBE cells, 384-well, read-out: RSV NHBE CC50 384 V2 (nM) (per Ex. U)
  CC50 at 3 days: 3910 nM
[4]; HEp-2 cells, 384-well, read-out: RSV HEP2-CC50-384-V2 (nM) (per Ex. V)
  CC50 at 3 days: > 43900 nM

## CCCCCCCCCCCCCCCCCCOC[C@H](COP(=O)(O)OC[C@@]1(C#N)O[C@@H](c2ccc3c(N)ncnn23)[C@H](O)[C@@H]1O)Oc1ccc(C#N)nc1 [Compound 24]
[2]
  EC50: 4 nM
[3]
  CC50 at 3 days: 937 nM

## CCCCCCCCCCCCCCCCCC[C@@H](COP(=O)(O)OC[C@@]1(C#N)O[C@@H](c2ccc3c(N)ncnn23)[C@H](O)[C@@H]1O)OCc1cc(Cl)cc(C#N)c1 [Compound 87, ((2R,3S,4R,5S)-5-(4-aminopyrrolo[2,1-f][1,2,4]triazin-7-yl)-2-cyano-3,4-dihydroxytetrahydrofuran-2-yl)methyl ((S)-2-((3-chloro-5-cyanobenzyl)oxy)icosyl) hydrogen phosphate]
[1]
  EC50: 443 nM
[2]
  EC50: 133 nM
[3]
  CC50 at 3 days: 3450 nM
[4]
  CC50 at 3 days: > 34800 nM

## CCCCCCCCCCCCCC[C@@H](COP(=O)(O)OC[C@@]1(C#N)O[C@@H](c2ccc3c(N)ncnn23)[C@H](O)[C@@H]1O)OCc1cc(F)cc(C#N)c1 [Compound 86, ((2R,3S,4R,5S)-5-(4-aminopyrrolo[2,1-f][1,2,4]triazin-7-yl)-2-cyano-3,4-dihydroxytetrahydrofuran-2-yl)methyl ((S)-2-((3-cyano-5-fluorobenzyl)oxy)hexadecyl) hydrogen phosphate]
[1]
  EC50: 546 nM
[2]
  EC50: 25 nM
[3]
  CC50 at 3 days: 2900 nM
[4]
  CC50 at 3 days: > 50000 nM

## CCCCCCCCCCCCCCCCCCOC[C@](C)(COP(=O)(O)OC[C@@]1(C#N)O[C@@H](c2ccc3c(N)ncnn23)[C@H](O)[C@@H]1O)OCc1cc(F)cc(C#N)c1 [Compound 94, ((2R,3S,4R,5S)-5-(4-aminopyrrolo[2,1-f][1,2,4]triazin-7-yl)-2-cyano-3,4-dihydroxytetrahydrofuran-2-yl)methyl ((R)-2-((3-cyano-5-fluorobenzyl)oxy)-2-methyl-3-(octadecyloxy)propyl) hydrogen phosphate]
[1]
  EC50: 339 nM
[2]
  EC50: 59 nM
[3]
  CC50 at 3 days: 16000 nM
[4]
  CC50 at 3 days: > 50000 nM

## CCCCCCCCCCCCCCCCCC[C@@H](COP(=O)(O)OC[C@@]1(C#N)O[C@@H](c2ccc3c(N)ncnn23)[C@H](O)[C@@H]1O)Oc1cc(F)cc(C#N)c1 [Compound 96, ((2R,3S,4R,5S)-5-(4-aminopyrrolo[2,1-f][1,2,4]triazin-7-yl)-2-cyano-3,4-dihydroxytetrahydrofuran-2-yl)methyl ((S)-2-(3-cyano-5-fluorophenoxy)icosyl) hydrogen phosphate]
[1]
  EC50: 368 nM
[2]
  EC50: 67 nM
[3]
  CC50 at 3 days: 5240 nM
[4]
  CC50 at 3 days: > 38100 nM
